We go through three compounds from paper PMC7887068 (Peptides, 2021).

Series [1] has as its system ACE2. The conditions noted are these: read-out: half maximum inhibitory concentration (IC50); cited from earlier work.
Series [2] addresses T1, recombinant human ACE2 (rhACE2) (Homo sapiens, UniProt Q9BYF1). The series is described as follows: MLN-4760 inhibition of rhACE2 metabolism of angiotensin peptides. The format is biochemical.
Series [3] has as its system Human neutrophil collagenase (matrix metalloproteinase 8, MMP8). The conditions noted are these: 10 mM zinc; activity increases up to 100 μM zinc; cited from earlier work.
In series [4] the target is T1, recombinant human ACE2 (rhACE2). The conditions noted are these: pH 7.0.
The target is the same in series [5]. The series is described as follows: Zinc inhibition of rhACE2 metabolism of Ang II to Ang 1–7. The format is biochemical.
For series [6], the system named is CC[C@H](C)[C@H](NC(=O)[C@H](Cc1ccc(O)cc1)NC(=O)[C@@H](NC(=O)[C@H](CCCNC(=N)N)NC(=O)[C@@H](N)CC(=O)O)C(C)C)C(=O)N[C@@H](Cc1cnc[nH]1)C(=O)N1CCC[C@H]1C(=O)N[C@@H](Cc1ccccc1)C(=O)O. The format is biochemical, human. The conditions noted are these: other: average of the two series (Tables 2 and 3), Ang II to Ang 1–7.

For orientation: inhibition means the percentage by which the read-out fell short of the control. For orientation: Km means the concentration of substrate that gives half-maximal velocity.

Where two headings read alike, the source gives them in different places.

T1 sequence (Q9BYF1 18-740 limits assumed): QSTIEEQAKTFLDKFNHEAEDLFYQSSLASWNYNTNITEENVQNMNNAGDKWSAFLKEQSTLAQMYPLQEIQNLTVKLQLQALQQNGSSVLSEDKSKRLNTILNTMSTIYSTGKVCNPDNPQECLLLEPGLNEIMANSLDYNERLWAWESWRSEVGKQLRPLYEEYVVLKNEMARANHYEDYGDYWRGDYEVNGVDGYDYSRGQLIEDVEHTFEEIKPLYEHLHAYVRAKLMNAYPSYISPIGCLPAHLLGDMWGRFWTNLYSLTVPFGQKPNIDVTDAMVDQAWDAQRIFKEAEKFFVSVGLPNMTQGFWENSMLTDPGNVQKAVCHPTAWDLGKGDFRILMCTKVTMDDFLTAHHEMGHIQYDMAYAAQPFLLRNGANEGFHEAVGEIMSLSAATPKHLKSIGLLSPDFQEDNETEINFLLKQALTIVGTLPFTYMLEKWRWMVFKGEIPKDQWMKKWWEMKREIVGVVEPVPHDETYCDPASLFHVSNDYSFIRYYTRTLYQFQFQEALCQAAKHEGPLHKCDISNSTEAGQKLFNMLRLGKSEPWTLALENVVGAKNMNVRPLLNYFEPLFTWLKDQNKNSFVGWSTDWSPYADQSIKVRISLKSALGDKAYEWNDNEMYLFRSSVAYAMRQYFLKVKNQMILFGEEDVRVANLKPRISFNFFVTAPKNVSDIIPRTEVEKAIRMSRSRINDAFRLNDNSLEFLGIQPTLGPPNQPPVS

Turning to `CC(C)C[C@H](N[C@@H](Cc1cncn1Cc1cc(Cl)cc(Cl)c1)C(=O)O)C(=O)O` [MLN-4760], the IC50 in series [1] is 0.0004 µM. Besides, the “inhibition of metabolism of Ang II to Ang 1–7” value in series [2] (1 μM MLN-4760) is given as “nearly all”. Besides, the inhibition at 1 µM in series [2] (read-out: inhibition of rhACE2 activity) was approximately 90%.
As for `CC(=O)[O-].CC(=O)[O-].[Zn+2]` [zinc, zinc acetate], the collagenase activity remaining in series [3] is listed as ~ 20%. Besides, the “Log IC50 for inhibition of rhACE2 metabolism of Mca-APK(dnp)” value in series [4] (HEPES buffer) is on record as −3.77; in series [4] (MES buffer), −3.85; in series [4] (Tris buffer), −3.82. Besides, the “inhibition of ACE2 activity” value in series [5] (1 mM zinc) is given as “completely”. In addition, the IC50 in series [5] (read-out: IC50 for inhibition of rhACE2 metabolism of Ang II to Ang 1–7, zinc 1 to 1000 μM, 100 μM Ang II, rhACE2 48.4 ng/ml (569 pM), 50 mM Hepes, 100 mM NaCl, pH 7.0, 30 min, 37°C, mean ± SEM, n=2) was 69.1 ± 1.1 µM.
As to “recombinant human ACE2 (rhACE2) (Homo sapiens)”, in series [6], the Km was found to be 8.47 µM and the kcat/Km is given as 1.02 μM^−1,sec^−1.
